Results: ChEMBL document CHEMBL2010748, “Structure-Activity Relationship Studies of HIV-1 Integrase Oligonucleotide Inhibitors” (ACS Med Chem Lett, 2011)

Biological target: Human immunodeficiency virus type 1 integrase (Human immunodeficiency virus 1, UniProt Q7ZJM1)
Test: Inhibition of Human immunodeficiency virus 1 integrase 3'-processing activity expressed in Escherichia coli using 21-mer DNA and Mg2+ after 2 hrs by polyacrylamide gel electrophoresis

Sequence of Human immunodeficiency virus type 1 integrase (Q7ZJM1 whole entry): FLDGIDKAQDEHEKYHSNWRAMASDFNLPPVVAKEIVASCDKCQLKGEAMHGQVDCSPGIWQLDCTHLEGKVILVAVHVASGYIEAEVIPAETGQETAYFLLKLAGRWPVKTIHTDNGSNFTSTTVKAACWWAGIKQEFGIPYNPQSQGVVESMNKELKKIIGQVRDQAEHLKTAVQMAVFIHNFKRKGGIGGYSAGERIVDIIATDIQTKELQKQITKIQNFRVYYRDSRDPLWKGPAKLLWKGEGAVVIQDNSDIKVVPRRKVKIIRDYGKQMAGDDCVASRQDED

SMILES	IC50
Cc1cn([C@H]2C[C@H](OP(=O)(O)OCCCOP(=O)(O)OCCCOP(=O)(O)OCCCOP(=O)(O)OCCCOP(=O)(O)OCCCOP(=O)(O)OCCCOP(=O)(O)OC[C@H]3O[C@@H](n4cc(C)c(=O)[nH]c4=O)C[C@@H]3O)[C@@H](COP(=O)(O)O[C@H]3C[C@H](n4cc(C)c(=O)[nH]c4=O)O[C@@H]3COP(=O)(O)O[C@H]3C[C@H](n4cnc5c(=O)[nH]c(N)nc54)O[C@@H]3COP(=O)(O)O[C@H]3C[C@H](n4cnc5c(=O)[nH]c(N)nc54)O[C@@H]3COP(=O)(O)OCCCCCCNC(=O)c3cc(Cl)c(C(=O)O)c(-c4c5cc(Cl)c(=O)c(Cl)c-5oc5c(Cl)c(O)c(Cl)cc45)c3Cl)O2)c(=O)[nH]c1=O	0.31 µM
CCCCCCCC/C=C\CCCCCCCC(=O)NCCCOCC(O)COP(=O)(S)O[C@H]1[C@@H](OC)[C@H](n2ccc(=O)[nH]c2=O)O[C@@H]1COP(=O)(S)O[C@H]1[C@@H](OC)[C@H](n2cnc3c(=O)[nH]c(N)nc32)O[C@@H]1COP(=O)(S)O[C@H]1[C@@H](OC)[C@H](n2ccc(=O)[nH]c2=O)O[C@@H]1COP(=O)(S)O[C@H]1[C@@H](OC)[C@H](n2cnc3c(=O)[nH]c(N)nc32)O[C@@H]1COP(=O)(S)O[C@H]1[C@@H](OC)[C@H](n2ccc(=O)[nH]c2=O)O[C@@H]1COP(=O)(S)O[C@H]1[C@@H](OC)[C@H](n2ccc(=O)[nH]c2=O)O[C@@H]1COP(=O)(S)O[C@H]1[C@@H](OC)[C@H](n2ccc(=O)[nH]c2=O)O[C@@H]1COP(=O)(S)O[C@H]1[C@@H](OC)[C@H](n2ccc(=O)[nH]c2=O)O[C@@H]1COP(=O)(S)O[C@H]1[C@@H](OC)[C@H](n2ccc(=O)[nH]c2=O)O[C@@H]1COP(=O)(S)O[C@H]1[C@@H](OC)[C@H](n2cnc3c(=O)[nH]c(N)nc32)O[C@@H]1COP(=O)(S)O[C@H]1[C@@H](OC)[C@H](n2cnc3c(=O)[nH]c(N)nc32)O[C@@H]1COP(=O)(S)OCCCCCCNC(=O)c1cc(Cl)c(C(=O)O)c(-c2c3cc(Cl)c(=O)c(Cl)c-3oc3c(Cl)c(O)c(Cl)cc23)c1Cl (stereo not given in full)	0.02 µM

The remaining compounds from weak to strong by IC50, led by results:

IC50	SMILES
0.052 µM	CO[C@@H]1[C@H](O)[C@@H](COP(=O)(O)O[C@H]2[C@@H](OC)[C@H](n3cnc4c(=O)[nH]c(N)nc43)O[C@@H]2COP(=O)(O)O[C@H]2[C@@H](OC)[C@H](n3ccc(=O)[nH]c3=O)O[C@@H]2COP(=O)(O)O[C@H]2[C@@H](OC)[C@H](n3cnc4c(=O)[nH]c(N)nc43)O[C@@H]2COP(=O)(O)O[C@H]2[C@@H](OC)[C@H](n3ccc(=O)[nH]c3=O)O[C@@H]2COP(=O)(O)O[C@H]2[C@@H](OC)[C@H](n3ccc(=O)[nH]c3=O)O[C@@H]2COP(=O)(O)O[C@H]2[C@@H](OC)[C@H](n3ccc(=O)[nH]c3=O)O[C@@H]2COP(=O)(O)O[C@H]2[C@@H](OC)[C@H](n3ccc(=O)[nH]c3=O)O[C@@H]2COP(=O)(O)O[C@H]2[C@@H](OC)[C@H](n3ccc(=O)[nH]c3=O)O[C@@H]2COP(=O)(O)O[C@H]2[C@@H](OC)[C@H](n3cnc4c(=O)[nH]c(N)nc43)O[C@@H]2COP(=O)(O)O[C@H]2[C@@H](OC)[C@H](n3cnc4c(=O)[nH]c(N)nc43)O[C@@H]2COP(=O)(O)OCCCCCCNC(=O)c2cc(Cl)c(C(=O)O)c(-c3c4cc(Cl)c(=O)c(Cl)c-4oc4c(Cl)c(O)c(Cl)cc34)c2Cl)O[C@H]1n1ccc(=O)[nH]c1=O
0.048 µM	CO[C@@H]1[C@H](OP(=O)(O)OC[C@H]2O[C@@H](n3ccc(=O)[nH]c3=O)[C@H](OC)[C@@H]2OP(=O)(O)OC[C@H]2O[C@@H](n3ccc(=O)[nH]c3=O)[C@H](OC)[C@@H]2OP(=O)(O)OC[C@H]2O[C@@H](n3cnc4c(=O)[nH]c(N)nc43)[C@H](OC)[C@@H]2OP(=O)(O)OC[C@H]2O[C@@H](n3ccc(=O)[nH]c3=O)[C@H](OC)[C@@H]2OP(=O)(O)OC[C@H]2O[C@@H](n3cnc4c(=O)[nH]c(N)nc43)[C@H](OC)[C@@H]2OP(=O)(O)OC[C@H]2O[C@@H](n3ccc(=O)[nH]c3=O)[C@H](OC)[C@@H]2OP(=O)(O)OCCCCCCNC(=S)Nc2ccc(-c3c4cc(Br)c(=O)c(Br)c-4oc4c(Br)c(O)c(Br)cc34)c(C(=O)O)c2)[C@@H](COP(=O)(O)O[C@H]2[C@@H](OC)[C@H](n3ccc(=O)[nH]c3=O)O[C@@H]2COP(=O)(O)O[C@H]2[C@@H](OC)[C@H](n3ccc(=O)[nH]c3=O)O[C@@H]2COP(=O)(O)O[C@H]2[C@@H](OC)[C@H](n3cnc4c(=O)[nH]c(N)nc43)O[C@@H]2COP(=O)(O)O[C@H]2[C@@H](OC)[C@H](n3cnc4c(=O)[nH]c(N)nc43)O[C@@H]2CO)O[C@H]1n1ccc(=O)[nH]c1=O
0.019 µM	CO[C@@H]1[C@H](O)[C@@H](COP(=O)(S)O[C@H]2[C@@H](OC)[C@H](n3cnc4c(=O)[nH]c(N)nc43)O[C@@H]2COP(=O)(S)O[C@H]2[C@@H](OC)[C@H](n3ccc(=O)[nH]c3=O)O[C@@H]2COP(=O)(S)O[C@H]2[C@@H](OC)[C@H](n3cnc4c(=O)[nH]c(N)nc43)O[C@@H]2COP(=O)(S)O[C@H]2[C@@H](OC)[C@H](n3ccc(=O)[nH]c3=O)O[C@@H]2COP(=O)(S)O[C@H]2[C@@H](OC)[C@H](n3ccc(=O)[nH]c3=O)O[C@@H]2COP(=O)(S)O[C@H]2[C@@H](OC)[C@H](n3ccc(=O)[nH]c3=O)O[C@@H]2COP(=O)(S)O[C@H]2[C@@H](OC)[C@H](n3ccc(=O)[nH]c3=O)O[C@@H]2COP(=O)(S)O[C@H]2[C@@H](OC)[C@H](n3ccc(=O)[nH]c3=O)O[C@@H]2COP(=O)(S)O[C@H]2[C@@H](OC)[C@H](n3cnc4c(=O)[nH]c(N)nc43)O[C@@H]2COP(=O)(S)O[C@H]2[C@@H](OC)[C@H](n3cnc4c(=O)[nH]c(N)nc43)O[C@@H]2COP(=O)(S)OCCCCCCNC(=O)c2cc(Cl)c(C(=O)O)c(-c3c4cc(Cl)c(=O)c(Cl)c-4oc4c(Cl)c(O)c(Cl)cc34)c2Cl)O[C@H]1n1ccc(=O)[nH]c1=O (stereo not given in full)
